Experimental data taken from patent US12077503B2, “Substituted cyclic amides and their use as herbicides” (FMC CORPORATION, priority 2015, dated 2024).

Legend:
Assay type in all cases: in vivo
[1] = system: crabgrass, large (Digitaria sanguinalis); test: Test A preemergence; settings: for Plant response rating, Crabgrass, Large: 125 g ai/ha, preemergence, 0 to 100 scale (0 no effect, 100 complete control); for Crabgrass, Large plant response rating (0 to 100 scale): Preemergence, 500 g ai/ha, 0 is no effect, 100 is complete control
Method in brief: (§1)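 Each rating is a visual injury score from 0 to 100 given about 10 d after treatment, judged against untreated controls kept alongside in the greenhouse. In loam soil–sand blend, seeds got a preemergence directed soil spray, while postemergence plants were 2 to 10 cm tall at spraying.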

corn (Zea mays) [2] = test: Test A preemergence; settings: for Plant response rating, Corn: 125 g ai/ha, preemergence, 0 to 100 scale (0 no effect, 100 complete control); for Corn plant response rating (0 to 100 scale): Preemergence, 500 g ai/ha, 0 is no effect, 100 is complete control
Method in brief: as §1

[3] = system: wheat (Triticum aestivum); test: Test A preemergence; settings: for Plant response rating, Wheat: 125 g ai/ha, preemergence, 0 to 100 scale (0 no effect, 100 complete control); for Wheat plant response rating (0 to 100 scale): Preemergence, 500 g ai/ha, 0 is no effect, 100 is complete control
Method in brief: as §1

[4] = system: velvetleaf (Abutilon theophrasti); test: Test A preemergence; settings: for Plant response rating, Velvetleaf: 125 g ai/ha, preemergence, 0 to 100 scale (0 no effect, 100 complete control); for Velvetleaf plant response rating (0 to 100 scale): Preemergence, 500 g ai/ha, 0 is no effect, 100 is complete control
Method in brief: as §1

[5] = system: pigweed (Amaranthus retroflexus); test: Test A preemergence; settings: for Plant response rating, Pigweed: 125 g ai/ha, preemergence, 0 to 100 scale (0 no effect, 100 complete control); for Pigweed plant response rating (0 to 100 scale): Preemergence, 500 g ai/ha, 0 is no effect, 100 is complete control
[6] = system: morningglory (Ipomoea spp.); test: Test A preemergence; settings: for Plant response rating, Morningglory: 125 g ai/ha, preemergence, 0 to 100 scale (0 no effect, 100 complete control); for Morningglory plant response rating (0 to 100 scale): Preemergence, 500 g ai/ha, 0 is no effect, 100 is complete control
Method in brief: as §1

[7] = system: giant foxtail (Setaria faberii); test: Test A preemergence; settings: for Plant response rating, Foxtail, Giant: 125 g ai/ha, preemergence, 0 to 100 scale (0 no effect, 100 complete control); for Foxtail, Giant plant response rating (0 to 100 scale): Preemergence, 500 g ai/ha, 0 is no effect, 100 is complete control
Method in brief: as §1

[8] = system: barnyardgrass (Echinochloa crus-galli); test: Test A preemergence; settings: for Plant response rating, Barnyardgrass: 125 g ai/ha, preemergence, 0 to 100 scale (0 no effect, 100 complete control); for Barnyardgrass plant response rating (0 to 100 scale): Preemergence, 500 g ai/ha, 0 is no effect, 100 is complete control
Method in brief: as §1

[9] = system: crabgrass, large (Digitaria sanguinalis); test: Test A postemergence
Method in brief: as §1

corn (Zea mays) [10] = test: Test A postemergence
Method in brief: as §1

[11] = system: wheat (Triticum aestivum); test: Test A postemergence
Method in brief: as §1

[12] = system: velvetleaf (Abutilon theophrasti); test: Test A postemergence
Method in brief: as §1

[13] = system: pigweed (Amaranthus retroflexus); test: Test A postemergence
Method in brief: as §1

[14] = system: morningglory (Ipomoea spp.); test: Test A postemergence
Method in brief: as §1

[15] = system: giant foxtail (Setaria faberii); test: Test A postemergence
Method in brief: as §1

[16] = system: barnyardgrass (Echinochloa crus-galli); test: Test A postemergence
Method in brief: as §1

[17] = system: sedge, umbrella (small-flower umbrella sedge, Cyperus difformis); test: Test B flooded paddy test; settings: Flood, 250 g ai/ha; 0 to 100 scale where 0 is no effect and 100 is complete control; 13 to 15 d
Method in brief: (§2)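 Response scored visually against untreated controls, 0 = no effect and 100 = complete control, 13–15 d after treatment in the greenhouse. Compounds added to paddy water held 3 cm above soil surface. Treatment given at 2-leaf stage.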

rice (Oryra sativa) = test: Test B flooded paddy test; settings: Flood, 250 g ai/ha; 0 to 100 scale where 0 is no effect and 100 is complete control; 13 to 15 d
Method in brief: as §2

[18] = system: ducksalad (Heteranthera limosa); test: Test B flooded paddy test; settings: Flood, 250 g ai/ha; 0 to 100 scale where 0 is no effect and 100 is complete control; 13 to 15 d
Method in brief: as §2

[19] = system: barnyardgrass (Echinochloa crus-galli); test: Test B flooded paddy test; settings: Flood, 250 g ai/ha; 0 to 100 scale where 0 is no effect and 100 is complete control; 13 to 15 d
Method in brief: as §2

[20] = 500 g ai/ha, postemergence, 0 to 100 scale, 0 no effect, 100 complete control
[21] = Postemergence, 125 g ai/ha, visual injury, 0 to 100 scale (0 no effect, 100 complete control), approx. 10 d

O=C1NCC(c2cccnc2)C1C(=O)Nc1ccccc1C(F)(F)F (racemic) [Compound 352]
0: Plant response rating, Crabgrass, Large [1] | Crabgrass, Large plant response rating (0 to 100 scale) [1] | Plant response rating, Corn (corn (Zea mays) [2]) | Corn plant response rating (0 to 100 scale) (corn (Zea mays) [2]) | Plant response rating, Wheat [3] | Wheat plant response rating (0 to 100 scale) [3] | Plant response rating, Velvetleaf [4] | Velvetleaf plant response rating (0 to 100 scale) [4] | Plant response rating, Pigweed [5] | Pigweed plant response rating (0 to 100 scale) [5] | Plant response rating, Morningglory [6] | Morningglory plant response rating (0 to 100 scale) [6] | Plant response rating, Foxtail, Giant [7] | Foxtail, Giant plant response rating (0 to 100 scale) [7] | Plant response rating, Barnyardgrass [8] | Barnyardgrass plant response rating (0 to 100 scale) [8] | Plant response rating, Crabgrass, Large [9, 20] | Plant response rating, Crabgrass, Large [9, 21] | Plant response rating, Corn (corn (Zea mays) [10]; [20]) | Plant response rating, Corn (corn (Zea mays) [10]; [21]) | Plant response rating, Wheat [11, 20] | Plant response rating, Wheat [11, 21] | Plant response rating, Velvetleaf [12, 20] | Plant response rating, Velvetleaf [12, 21] | Plant response rating, Pigweed [13, 20] | Plant response rating, Pigweed [13, 21] | Plant response rating, Morningglory [14, 20] | Plant response rating, Morningglory [14, 21] | Plant response rating, Foxtail, Giant [15, 20] | Plant response rating, Foxtail, Giant [15, 21] | Plant response rating, Barnyardgrass [16, 20] | Plant response rating, Barnyardgrass [16, 21] | Plant response rating, Sedge, Umbrella [17] | Plant response rating, Rice (rice (Oryra sativa)) | Plant response rating, Ducksalad [18] | Plant response rating, Barnyardgrass [19]

O=C1NCC(c2ccc(F)c(F)c2)C1C(=O)Nc1n[nH]cc1Br (racemic) [Compound 361]
0: Plant response rating, Crabgrass, Large [1] | Crabgrass, Large plant response rating (0 to 100 scale) [1] | Plant response rating, Corn (corn (Zea mays) [2]) | Corn plant response rating (0 to 100 scale) (corn (Zea mays) [2]) | Plant response rating, Wheat [3] | Wheat plant response rating (0 to 100 scale) [3] | Plant response rating, Velvetleaf [4] | Velvetleaf plant response rating (0 to 100 scale) [4] | Plant response rating, Pigweed [5] | Pigweed plant response rating (0 to 100 scale) [5] | Plant response rating, Morningglory [6] | Morningglory plant response rating (0 to 100 scale) [6] | Plant response rating, Foxtail, Giant [7] | Foxtail, Giant plant response rating (0 to 100 scale) [7] | Plant response rating, Barnyardgrass [8] | Barnyardgrass plant response rating (0 to 100 scale) [8] | Plant response rating, Crabgrass, Large [9, 20] | Plant response rating, Crabgrass, Large [9, 21] | Plant response rating, Corn (corn (Zea mays) [10]; [20]) | Plant response rating, Corn (corn (Zea mays) [10]; [21]) | Plant response rating, Wheat [11, 20] | Plant response rating, Wheat [11, 21] | Plant response rating, Velvetleaf [12, 20] | Plant response rating, Velvetleaf [12, 21] | Plant response rating, Pigweed [13, 20] | Plant response rating, Pigweed [13, 21] | Plant response rating, Morningglory [14, 20] | Plant response rating, Morningglory [14, 21] | Plant response rating, Foxtail, Giant [15, 20] | Plant response rating, Foxtail, Giant [15, 21] | Plant response rating, Barnyardgrass [16, 20] | Plant response rating, Barnyardgrass [16, 21] | Plant response rating, Sedge, Umbrella [17] | Plant response rating, Rice (rice (Oryra sativa)) | Plant response rating, Ducksalad [18] | Plant response rating, Barnyardgrass [19]
